Assay results from paper PMC10141580, “Cyclic Dichalcogenides Extend the Reach of Bioreductive Prodrugs to Harness Thiol/Disulfide Oxidoreductases: Applications to seco-Duocarmycins Targeting the Thioredoxin System” (ACS Central Science, 2023).
Like-named read-outs stand apart in the source and are kept apart here.

Experiments:
[1] = test system: A549 cells; assay: Resazurin cytotoxicity assay, A549, 72 h; conditions: read-out: IC50(nM): A549
Method: We used A549 lung cancer and HeLa cervical cancer cell lines for initial screening of the prodrugs.
Fi gure S9: Cell ular resazurin-based cytotoxi ci ty as s a y.
Dose -response curves were calculated from at least 27 incremental single concentrations over a range
of at least three log units. Individual experiments with annotated experiment numbers are shown for each prodrug

[2] = test system: athymic nu/nu NMRI mice with BxPC-3 tumors; assay: BxPC-3-bearing tolerability study; format: in vivo, mouse; conditions: twice weekly 3 mg/kg, five injections, BxPC-3-bearing NMRI mice
Excerpt: A larger study was run in 50 athymic nu/nu NMRI mice (10 animals per group) inoculated with BxPC-3 pancreatic cancer cells since the study had been intended as a therapeutic efficacy trial (see section 2.9). Similarly solubilized SS66C derivatives were now included. In this study, the tumor growth rates in all animals were much lower than in any previous or subsequent trials (Figure S16c), so we could only extract data about drug tolerability, not antitumor efficacy. Still, the study confirmed that the solubilized P-SS60-, Me-SS66C-, and P-SS66C- prodrugs of -CBI-TMI, and the corresponding carbamate hydrolysis control P-CC60-CBI-TMI, were tolerated with twice weekly injections at 3 mg/kg, over a course of five injections, in all animals, since no distinct differences of body weight or animal health were seen as compared to the vehicle control (Figure S16a).
a Body weights b Body weights
$ Absolute Tumour Volumes d Absolute Tumour Volumes
Irinotecan Irinotecan Irinotecan Irinotecan
(a,b) Bodyweights (means);
confidence interval). […] Dotted vertical lines indicate days

[3] = test system: mouse; assay: Tolerability for repeated dose administration in vivo (summary); conditions: for remarks: repeated dose administration; for well-tolerated dose: weekly or twice-weekly administration
[4] = test system: 4T1 murine breast cancer; assay: 4T1 orthotopic breast cancer efficacy study; format: in vivo; conditions: 4T1 in Balb/c mice; CBI prodrugs 3 mg/kg
Excerpt: (§1) We then moved to in vivo anticancer efficacy trials of these prodrugs. […] As one model we chose the syngeneic murine breast cancer 4T1, implanted orthotopically (at the native tissue site) into the fat pad of immunocompetent Balb/c mice (i.e., offering a realistic immune system and tumor microenvironment). This model gives rapid, aggressive tumor growth.[52] As a second model, we chose to xenograft human BxPC-3 pancreatic adenocarcinoma cells into immunodeficient hosts. This is a slower-growing model, with low metastasis, that can be more resistant to traditional antimitotic therapy.[53],[54] Mice were implanted, randomized once tumors reached 100–150 mm^3 volume, and treated once or twice weekly with prodrug or control compounds typically at 3 mg/kg (8–12 animals per condition, Figure 10a). Tumors were measured by caliper during the assay and weighed at termination.
7. 2. in vivo efficacy mouse studies
4T1 efficacy study BxPC-3 efficacy study a Absolute tumour volumes b Absolute tumour volumes […]
days after tumor implantation days after tumor implantation c Relative tumour volumes d Relative tumour volumes […]
e RTV! fi"al day of followu# f ex viv tumour weights g RTV! fi"al day of followu# h ex viv tumour weights (. mice remain in all *roups) (for animals left at day 31)(all *roups have statistical power)(day "2/ all animals left) […]
vehicle(1x)(1x)(1x) (2x)(2x) […]
P-##"0-#$%-&'%P-!!"0-#$%-&'%P-!!"0-#$%-()%P-!!"0-#$%-&'% %rinotecan %rinotecan P-##"0-#$%-&'%P-!!"0-#$%-()%P-!!"0-#$%-&'%P-!!"0-#$%-&'% P-!!"0-#$%-&'% P-!!"0-#$%-&'% […]
i Body weights $ Body weights […]
implant in Balb/c mice, 8 mice per group; (b, d,g,h,j): BxPC-3 subcutaneous xenograft in NMRi mice, 8 mice per […]
treatment (m e d ia n); (e,g) in vivo caliper measurement of relative tum or volumes at final day of followup [last day when all mice in all groups remain in the study] […]
tumor weights at termination of study (only mice not terminated on ethical grounds before the indicated days were harvested); (i,j) Bodyweights (means).
(BxPC-3 study); dotted vertical lines indicate days of [potential] treatment.

[5] = test system: MEF TrxR1-ko cells; assay: Resazurin cytotoxicity assay, MEF TrxR1 knockout, 72 h; conditions: MEF TrxR1-ko vs wt (fl/fl)
Excerpt: A TrxR1 knockout (ko) in mouse embryonic fibroblast (MEF) cells is, however, accessible. We compared its prodrug sensitivity to that of its parental line[49] (wild-type, wt), on the basis that TrxR1-ko should leave most Trx1 in its oxidized state (only a fraction of it can be maintained in the reduced state by alternative reductants such as Grx2),[50] so prodrugs relying on the cytosolic thioredoxin system (Trx1/TrxR1) for most of their bioreductive activation in long-term assays will have lower potency in TrxR1-ko cells.
MEF cells (ko vs. wt) we r e treated with prodrugs of the CBI-TMI and CBI-AZI series for
72 h at concentrations from 10 pm t o 3 0 µM at 27 incremental single concentrations depending on expected
potencies of the constructs. Data from at least 3 individual experiments was combined (no error bars shown for
clarity) for each cell line.

[6] = test system: human BxPC-3 pancreatic adenocarcinoma; assay: BxPC-3 xenograft efficacy study; format: in vivo, athymic nu/nu NMRI mice
Excerpt: as §1
Finally, we tested P-SS60-CBI-TMI in the slower-growing pancreatic cancer model BxPC-3 in athymic NMRI mice (8 animals per group). […]

[7] = test system: Balb/c mice; assay: Moderate repeated dosing tolerability study; format: in vivo; conditions: once weekly
Method: Next, a moderate repeated dosing study in Balb/c mice (3 animals per group) tested the importance of solubilizing the prodrugs.
Methods for in vivo animal studies
All in vivo studies were conducted as contract research together with React ionBiology Eur ope G mbH (Freiburg,
Germany), EPO – Experimental Pharmacology & Oncology GmbH (Berlin, Germany); Bient a/ Enam ine Lt d. (Kyiv,
Ukraine) and Leit at – Managing Technologies (Barcelona, Spain), adhering to the respective animal welfare
Mice were kept in individually ventilated cages at constant temperature (22±2 °C, air-conditioned) and humidity (45
– 65%), under optimum hygienic conditions with 10 – 15 air changes per hour. A cycle of 12 h artificial fluorescent
light ning and 12 h darkness was applied , and animal behavior was monitored daily throughout the studies. The
animals received food and water ad libit um.
To evaluate toxicity of selected compounds, dose level selection studies within dose range from 0.1 mg/kg to
10 mg/kg were performed by intravenous administration into Balb /c mice. Each dose for each tested compound
was administered in one mouse.
changes and clinical signs of gross toxicity three tim es per week for 21 consecutive days of post-dosing period.
After the first week of observation without adverse events, two doses for each test compound were selected as
tolerated. These two doses were tested in two additional mice for confirmation of toler ability. Additional animals
consecutive days of post-dosing period. Toxicity of repeated administrations was tested wit h t hr ee repeat ed pr e-
selected doses at a dosing interval of 7 days. Mortality, body weight changes, and clinical signs of gross toxicity
were monitored after each drug administration and three times per week for 21 consecutive days after the first
compound administration. Bleed ing with subsequent hematological tests, clinical chemistry parameters analysis
(ALT, AST, ALP, LDH, creatine kinase, creatinine, urea, cholesterol, and triglycerides), and necropsy with
macroscopic inspection were performed on the terminal day of the repeated dosing-regime.
To test tolerability of selected compounds in vivo, female BALB/c mice were randomized by weight into seven
groups of t hree animals.

COc1cc2cc(C(=O)N3C[C@@H](CCl)c4c3cc(OC(=O)N(CCC(=O)N3CCN(C)CC3)C3CCCCC3)c3ccccc43)[nH]c2c(OC)c1OC [P-CC60-CBI-TMI]
IC50 [1]: 1700 nM | tolerability [2]: tolerated | remarks [3]: well tolerated | well-tolerated dose [3]: 3 mg/kg | effect on tumor growth [4]: delayed tumor growth in the first week of treatment

COc1cc2cc(C(=O)N3CC(CCl)c4c3cc(OC(=O)N3CCN(C)C5CSSCC53)c3ccccc43)[nH]c2c(OC)c1OC (mixture of isomers) [Me-SS66C-CBI-TMI]
IC50 [1]: 17 nM | fold change of potency wt → ko [5]: 4 × | tolerability [2]: tolerated | remarks [3]: well tolerated | well-tolerated dose [3]: 3 mg/kg

COc1cc2cc(C(=O)N3CC(CCl)c4c3cc(OC(=O)N3CCN(C)C5CSSCC53)c3ccccc43)[nH]c2c(OC)c1OC (mixture of isomers) [Me-SS66T-CBI-TMI]
IC50 [1]: 5.9 nM | fold change of potency wt → ko [5]: 2 × | remarks [3]: well tolerated | well-tolerated dose [3]: 3 mg/kg

COc1cc2cc(C(=O)N3C[C@@H](CCl)c4c3cc(OC(=O)N3CCN(C(=O)CCC(=O)N5CCN(C)CC5)[C@H]5CSSC[C@H]53)c3ccccc43)[nH]c2c(OC)c1OC [P-SS66C-CBI-TMI]
IC50 ([1]; Homo sapiens): 12 nM | fold change of potency wt → ko [5]: 3 × | tolerability [2]: tolerated | remarks [3]: well tolerated | well-tolerated dose [3]: 3 mg/kg

COc1cc2cc(C(=O)N3C[C@@H](CCl)c4c3cc(OC(=O)N(CCC(=O)N3CCN(C)CC3)[C@H]3CCSSC3)c3ccccc43)[nH]c2c(OC)c1OC [P-SS60-CBI-TMI]
IC50 [1]: 180 nM | tumor suppression vs irinotecan ([6]; BxPC-3, 3 mg/kg vs irinotecan 10 mg/kg): almost identical tumor suppression | tumor growth rate suppression ([6]; BxPC-3, once-weekly 3 mg/kg, over 4 weeks): ca. 70% | tolerability [2]: tolerated | outcome of repeated dosing at 3 mg/kg [7]: tolerated | remarks [3]: well tolerated | well-tolerated dose [3]: 3 mg/kg | effect on tumor growth [4]: maintained statistically significant tumor suppression until study termination
